Assay results as given in patent publication US4552882A, “7-(1-Pyrrolyl) derivatives of 1-ethyl-1,4-dihydro-4-oxoquinoline-3-carboxylic acids and 1-ethyl-1,4-dihydro-4-oxo-1,8-naphthyridine-3-carboxylic acids and their use as antimicrobial agents” (Provesan, SA, priority 1983, dated 1985).
In brackets after ≈: the same amount, converted by molar mass.

Assays:
Experiment in all cases: MIC in vitro
Type in all cases: cell-based
[1] = test system: Enterobacter aerogenes ATCC 15038; details: Klebsiella aerogenes, ATCC15038, Dextrose agar, 37° C., 20 hours
Source text: (§1) (G. L. Daquet and Y. A. Chabbect, Techniques en bacteriologie (Bacteriological techniques), vol. 3, Flammarion Medecine Sciences, Paris, 1972 and W. B. Hugo and A. D. Rusell, Pharmaceutical Microbiology, Blackwell Scientific Publications, London, (1977)). Antibiotic medium no. 1 (seed agar) (Oxoid CM 327) Tryptone-soya broth (Oxoid CM 129) Ringer's physiological solution 1/4 (oxoid BR 52) Dextrose agar (BBL-11165) 0.1 N NaOH "Enterobacter aerogenes" ATCC 15038 Each of the microorganisms is seeded by streaking in tubes of Antibiotic medium No. 1 (seed agar), which are then incubated at 37° C. for 20 hours. Using a culture loop, the cultures are then seeded in tryptone-soyabroth and incubated at 37° C. for 20 hours. The culture obtained is diluted to 1/4 with Ringer's physiological solution, so as to obtain a standardized suspension of 10^7 -10^9 cfu/ml for each organism. Starting from a solution of 1,000 μg/ml in 0.1 N NaOH, each product is diluted in Dextrose agar (previously melted and maintained at 50° C.), with successive dilutions so as to obtain the following concentrations: 64--32--16--8--4--2--1--0.5--0.25--0.125 μg of derivative/ml medium. For each product, the solution of each concentration is subsequently distributed into Petri dishes 10 cm in diameter, with 10 ml of medium per dish and the same number of dishes as microorganisms to be tested. As soon as the medium has cooled, the dishes are seeded with the inoculations using 0.4 ml of inoculation per dish. They are spread with a Driglasky loop and the supernatant is removed. The seeded dishes are incubated at 37° C. for 20 hours.

[2] = test system: Enterobacter cloacae CHSP 20; details: CHSP20, Dextrose agar, 37° C., 20 hours
Experimental: as §1, with “cloacae" CHSP 20” for “aerogenes" ATCC 15038”

[3] = test system: Proteus mirabilis ATCC 4675; details: ATCC4675, Dextrose agar, 37° C., 20 hours
Experimental: as §1, with “"Proteus mirabilis"” for “"Enterobacter aerogenes"”, “4675” for “15038”

**Q.** Which results are given for `CCn1cc(C(=O)O)c(=O)c2ccc(-n3cccc3)cc21` [Example 1, 7-(1-pyrrolyl)-1-ethyl-1,4-dihydro-4-oxo-3-quinolinecarboxylic acid]?
**A.** MIC [1]: > 64 µg/mL; MIC [2]: 16 µg/mL (≈ 56.7 µM); MIC [3]: 16 µg/mL (≈ 56.7 µM)

**Q.** Which MIC [1] does the source give for `CCn1cc(C(=O)O)c(=O)c2cc(F)c(-n3cccc3)nc21` [Example 4, 1-ethyl-1,4-dihydro-4-oxo-6-fluoro-7-(1-pyrrolyl)-1,8-naphthyridine-3-carboxylic acid] here?
**A.** Its MIC is 4 µg/mL (≈ 13.3 µM).

**Q.** And the MIC [2]?
**A.** Its MIC is 2 µg/mL (≈ 6.64 µM).

**Q.** And the MIC [3]?
**A.** The MIC was 8 µg/mL (≈ 26.6 µM).

**Q.** What does the source list for `CCn1cc(C(=O)O)c(=O)c2cc(F)c(-n3cccc3)cc21` [Example 2, 6-fluoro-7-(1-pyrrolyl)-1-ethyl-1,4-dihydro-4-oxo-3-quinolinecarboxylic acid]?
**A.** MIC [1]: 8 µg/mL (≈ 26.6 µM); MIC [2]: 1 µg/mL (≈ 3.33 µM); MIC [3]: 4 µg/mL (≈ 13.3 µM)

**Q.** How did the MIC [1] turn out when `CCn1cc(C(=O)O)c(=O)c2ccc(-n3cccc3)nc21` [Example 3, 1-ethyl-1,4-dihydro-4-oxo-7-(1-pyrrolyl)-1,8-naphthyridine-3-carboxylic acid] was run?
**A.** The MIC was > 64 µg/mL.

**Q.** What about the MIC [2] of the same compound?
**A.** The MIC was 8 µg/mL (≈ 28.2 µM).

**Q.** What about the MIC [3] of the same compound?
**A.** The MIC was > 64 µg/mL.

**Q.** With `CCn1cc(C(=O)O)c(=O)c2cnc(N3CCNCC3)nc21` [Pipemidic acid, reference compound] as the compound, how does the MIC [1] read?
**A.** Its MIC is 32 µg/mL (≈ 105 µM).

**Q.** And the MIC [2]?
**A.** The MIC was 8 µg/mL (≈ 26.4 µM).

**Q.** And the MIC [3]?
**A.** Its MIC is 16 µg/mL (≈ 52.7 µM).
